Experimental findings from publication doi:10.1101/2021.10.07.463234v2 (biorxiv, 2021) are described below.

Where a name gives a salt, the structure may show the parent alone.

In one experiment the target is SARS-CoV-2 Mac1 (Severe acute respiratory syndrome coronavirus 2, UniProt P0DTD1). Nature of the experiment: biochemical. The following applies: 100 µM; inhibitor.
One may read the %inhibition as the relative decrease from the control value, in per cent. Low readings indicate a weak effect, high ones a strong effect. As for `COc1cc(Nc2ncc(F)c(Nc3ccc4c(n3)N(COP(=O)(O)O)C(=O)C(C)(C)O4)n2)cc(OC)c1OC` [Fostamatinib (R788)], the “%inhibition” value is 0%.
In the case of `Nc1ccn([C@@H]2O[C@H](CO)[C@@H](O)C2(F)F)c(=O)n1` [Gemcitabine HCl], the “%inhibition” value came to 0%.
Regarding `Nc1ccn([C@@H]2O[C@H](CO)[C@@H](O)C2(F)F)c(=O)n1` [Gemcitabine], the “%inhibition” value was 32.55%.
On to `CN1[C@@H]2CCC[C@H]1C[C@@H](NC(=O)c1nn(C)c3ccccc13)C2` [Granisetron HCl], for which the “%inhibition” value is given as 0%.
Regarding `CN1[C@@H]2CCC[C@H]1C[C@@H](NC(=O)c1nn(C)c3ccccc13)C2` [Granisetron], the “%inhibition” value was found to be 0.5264%.
For `N=C(N)NCCN1CCCCCCC1` [Guanethidine Monosulfate], the “%inhibition” value was determined as 5.593%.
In the case of `N=C(N)NCCN1CCCCCCC1` [Guanethidine Sulfate], the “%inhibition” value is listed as 0%.
On to `NCCc1c[nH]cn1` [Histamine 2HCl], for which the “%inhibition” value is reported as 6.627%.
Regarding `NCCc1c[nH]cn1` [Histamine Phosphate], the “%inhibition” value is reported as 0%.

The experiment is the same for the next values; noted with them: read-out: %inhibition.
For orientation: inhibition means the drop in the measured response relative to a control, in per cent. As for `CO[C@H]1O[C@H](COS(=O)(=O)O)[C@@H](O[C@@H]2O[C@@H](C(=O)O)[C@@H](O[C@H]3O[C@H](COS(=O)(=O)O)[C@@H](O[C@@H]4O[C@H](C(=O)O)[C@@H](O[C@H]5O[C@H](COS(=O)(=O)O)[C@@H](O)[C@H](O)[C@H]5NS(=O)(=O)O)[C@H](O)[C@H]4O)[C@H](OS(=O)(=O)O)[C@H]3NS(=O)(=O)O)[C@H](O)[C@H]2OS(=O)(=O)O)[C@H](O)[C@H]1NS(=O)(=O)O` [Fondaparinux Sodium], the inhibition at 100 µM worked out at 0%.
Take `COc1cc2c(Oc3ccc(NC(=O)C4(C(=O)Nc5ccc(F)cc5)CC4)cc3F)ccnc2cc1OCCCN1CCOCC1` [Foretinib (GSK1363089)]: the inhibition at 100 µM was 0%.
As to `C[C@]12CCC(=O)C(O)=C1CC[C@@H]1[C@@H]2CC[C@]2(C)C(=O)CC[C@@H]12` [Formestane], the inhibition at 100 µM came out at 0%.
In the case of `C[C@@H](O[C@H]1OCCN(Cc2nn(P(=O)(O)O)c(=O)[nH]2)[C@H]1c1ccc(F)cc1)c1cc(C(F)(F)F)cc(C(F)(F)F)c1` [Fosaprepitant dimeglumine salt], the inhibition at 100 µM is 3%.
As for `O=C(O)P(=O)(O)O` [Foscarnet Sodium], the inhibition at 100 µM was determined as 2.46%.
`C[C@@H]1O[C@@H]1P(=O)(O)O` [Fosfomycin Disodium]: the inhibition at 100 µM came to 0%.
Take `O=C(O)c1ccccc1OP(=O)(O)O` [Fosfosal]: the inhibition at 100 µM was 4.81%.
Consider `CCC(=O)O[C@@H](O[P@](=O)(CCCCc1ccccc1)CC(=O)N1C[C@H](C2CCCCC2)C[C@H]1C(=O)O)C(C)C` [Fosinopril Sodium], for which the inhibition at 100 µM was determined as 0%.
`N[C@@H](CSCCCO)C(=O)O` [Fudosteine]: the inhibition at 100 µM was found to be 0%.
For `C[C@]12CC[C@@H]3c4ccc(O)cc4C[C@@H](CCCCCCCCC[S+]([O-])CCCC(F)(F)C(F)(F)F)[C@H]3[C@@H]1CC[C@@H]2O` (some centres unmarked) [Fulvestrant], the inhibition at 100 µM came to 1.46%.
As to `CO[C@@H]1[C@H](OC(=O)/C=C/C=C/C=C/C=C/C(=O)O)CC[C@]2(CO2)[C@H]1[C@@]1(C)O[C@@H]1CC=C(C)C` [Fumagillin], the inhibition at 100 µM came out at 23.6%.
Same read-out and setting: the result for `O=C(O)/C=C/C(=O)O` [Fumaric acid] reads 1.89%; that for `O=C1OC(CN2CCOCC2)CN1/N=C/c1ccc([N+](=O)[O-])o1` (centres unmarked) [Furaltadone HCl], 15.8%.
For `O=C1OCCN1/N=C/c1ccc([N+](=O)[O-])o1` [Furazolidone], the inhibition at 100 µM is 0%.
On to `NS(=O)(=O)c1cc(C(=O)O)c(NCc2ccco2)cc1Cl` [Furosemide], for which the inhibition at 100 µM stood at 0%.
Consider `CC(=O)O[C@H]1C[C@@]2(C)[C@@H](C[C@@H](O)[C@H]3[C@@]4(C)CC[C@@H](O)[C@@H](C)[C@@H]4CC[C@@]32C)/C1=C(\CCC=C(C)C)C(=O)O` [Fusidate Sodium], for which the inhibition at 100 µM was 3.17%.
`NCC1(CC(=O)O)CCCCC1` [Gabapentin]: the inhibition at 100 µM worked out at 0%.
Take `COc1ccc2c3c1O[C@H]1C[C@@H](O)C=C[C@@]31CCN(C)C2` [Galanthamine HBr]: the inhibition at 100 µM was 0%.
Still for that read-out and setting: the result for `C[C@]12CC[C@H](O)CC1=CC[C@@H]1[C@@H]2CC[C@]2(C)C(n3cnc4ccccc43)=CC[C@@H]12` [Galeterone] reads 31.2%; that for `CC[N+](CC)(CC)CCOc1cccc(OCC[N+](CC)(CC)CC)c1OCC[N+](CC)(CC)CC` [Gallamine Triethiodide], 3.8%.
As for `O=C(O)c1cc(O)c(O)c(O)c1` [Gallic acid], the inhibition at 100 µM turned out to be 0%.
For `Cc1cccc(-c2nn3c(c2-c2ccnc4ccc(C(N)=O)cc24)CCC3)n1` [Galunisertib (LY2157299)], the inhibition at 100 µM worked out at 0%.
On the same count and under the same terms, then `Nc1nc2c(ncn2COC(CO)CO)c(=O)[nH]1` [Ganciclovir], with 49.4%; and `Cc1cc(Nc2cc(CN3CCOCC3)c3nc(C)c(Cc4ccc(Cl)cc4F)n3n2)n[nH]1` [Gandotinib (LY2784544)], with 0%; and `CC(C)c1cc(-c2n[nH]c(=O)n2-c2ccc3c(ccn3C)c2)c(O)cc1O` [Ganetespib (STA-9090)], with 1.18%.
Turning to `COc1c(N2CCNC(C)C2)c(F)cc2c(=O)c(C(=O)O)cn(C3CC3)c12` (centres unmarked) [Gatifloxacin], the inhibition at 100 µM came to 1.88%.
In the case of `CC(C)=CCC/C(C)=C/CC/C(C)=C/CCC(=O)OC/C=C(\C)CCC=C(C)C` [Gefarnate], the inhibition at 100 µM is 5.96%.
Consider `Cc1ccc(C)c(OCCCC(C)(C)C(=O)O)c1` [Gemfibrozil], for which the inhibition at 100 µM is 45.1%.
Turning to `O=c1c(-c2ccc(O)cc2)coc2cc(O)cc(O)c12` [Genistein], the inhibition at 100 µM was determined as 1.56%.
Turning to `C#C[C@]1(O)C=C[C@H]2[C@@H]3CCC4=CC(=O)CC[C@@H]4[C@H]3CC[C@@]21CC` [Gestodene], the inhibition at 100 µM stood at 0%.
The same measure, in the same setting: the result for `Oc1cc(O)c(Cl)cn1` [Gimeracil] reads 0%; that for `O=C(OCC(O)CO)c1ccccc1Nc1ccnc2cc(Cl)ccc12` (centres unmarked) [Glafenine HCl], 16.2%.
Same read-out and setting: then `CCC1=C(C)CN(C(=O)NCCc2ccc(S(=O)(=O)NC(=O)N[C@H]3CC[C@H](C)CC3)cc2)C1=O` [Glimepiride], with 22.5%.
As for `Cc1cnc(C(=O)NCCc2ccc(S(=O)(=O)NC(=O)NC3CCCCC3)cc2)cn1` [Glipizide], the inhibition at 100 µM turned out to be 19.9%.
On to `N[C@H]1C(O)O[C@H](CO)[C@@H](O)[C@@H]1O` (some centres unmarked) [Glucosamine hydrochloride], for which the inhibition at 100 µM worked out at 0%.
As to `N[C@@H](CCC(=O)N[C@@H](CS)C(=O)NCC(=O)O)C(=O)O` [Glutathione], the inhibition at 100 µM came to 0%.
Same read-out and setting: then `COc1ccc(Cl)cc1C(=O)NCCc1ccc(S(=O)(=O)NC(=O)NC2CCCCC2)cc1` [Glyburide (Glibenclamide)], with 8.25%; and `NCC(=O)O` [Glycine], with 0%.
On the same count and under the same terms, then `C[N+]1(C)CCC(OC(=O)C(O)(c2ccccc2)C2CCCC2)C1` (centres unmarked) [Glycopyrrolate], with 0%.
Consider `CC(C)C[C@H](NC(=O)CNC(=O)[C@H](Cc1ccc(O)cc1)NC(=O)[C@H](CO)NC(=O)[C@H](Cc1c[nH]c2ccccc12)NC(=O)[C@H](Cc1cnc[nH]1)NC(=O)[C@@H]1CCC(=O)N1)C(=O)N[C@@H](CCCNC(=N)N)C(=O)N1CCC[C@H]1C(=O)NCC(N)=O` [Gonadorelin Acetate], for which the inhibition at 100 µM turned out to be 0%.
Same read-out and setting: then `C=C[C@@H]1C[C@]1(NC(=O)[C@@H]1C[C@@H]2CN1C(=O)[C@H](C(C)(C)C)NC(=O)O[C@@H]1C[C@H]1CCCCCc1nc3ccc(OC)cc3nc1O2)C(=O)NS(=O)(=O)C1CC1` [Grazoprevir], with 0%; and `COC1=CC(=O)C[C@@H](C)[C@]12Oc1c(Cl)c(OC)cc(OC)c1C2=O` [Griseofulvin], with 0%; and `COc1ccccc1O` [Guaiacol], with 0%.
Take `COc1ccccc1OCC(O)CO` (centres unmarked) [Guaifenesin]: the inhibition at 100 µM turned out to be 33.3%.
As to `N=C(N)N/N=C/c1c(Cl)cccc1Cl` [Guanabenz Acetate], the inhibition at 100 µM is 0%.
For the compound `N=C(N)NC(=O)Cc1c(Cl)cccc1Cl` [Guanfacine Hydrochloride], the inhibition at 100 µM turned out to be 0%.
On the same count and under the same terms, then `N=C(N)N` [Guanidine HCl], with 14%; and `CC1(C)O[C@@H]2C[C@H]3[C@@H]4CCC5=CC(=O)CC[C@]5(C)[C@@]4(F)[C@@H](O)C[C@]3(C)[C@]2(C(=O)CCl)O1` [Halcinonide], with 25.9%; and `CCC(=O)O[C@]1(C(=O)CCl)[C@@H](C)C[C@H]2[C@@H]3C[C@H](F)C4=CC(=O)C=C[C@]4(C)[C@@]3(F)[C@@H](O)C[C@@]21C` [Halobetasol Propionate], with 24.3%.
Consider `FC(F)(F)C(Cl)Br` (centres unmarked) [Halothane], for which the inhibition at 100 µM was determined as 0%.
Consider `Oc1c(Cl)cc(Cl)c(Cl)c1Cc1c(O)c(Cl)cc(Cl)c1Cl` [Hexachlorophene], for which the inhibition at 100 µM stood at 0%.
As to `C[N+](C)(C)CCCCCC[N+](C)(C)C` [Hexamethonium?Dibromide], the inhibition at 100 µM worked out at 0%.
For the compound `CC[C@H](c1ccc(O)cc1)[C@@H](CC)c1ccc(O)cc1` [Hexestrol], the inhibition at 100 µM was 0%.
Turning to `CCCCCCc1ccc(O)cc1O` [Hexylresorcinol], the inhibition at 100 µM came out at 0%.
On the same count and under the same terms, then `C[N+]1(C)[C@@H]2CC[C@H]1C[C@@H](OC(=O)C(O)c1ccccc1)C2` (some centres unmarked) [Homatropine Methylbromide], with 0%; and `NNc1nncc2ccccc12` [Hydralazine HCl], with 6.58%; and `CC(=O)OCC(=O)[C@@]1(O)CC[C@H]2[C@@H]3CCC4=CC(=O)CC[C@]4(C)[C@H]3[C@@H](O)C[C@@]21C` [Hydrocortisone acetate], with 0%.
The same measure, in the same setting: then `C[C@]12CCC(=O)C=C1CC[C@@H]1[C@@H]2[C@@H](O)C[C@@]2(C)[C@H]1CC[C@]2(O)C(=O)CO` [Hydrocortisone], with 5.07%; and `CC[C@H]1CN2CC[C@H]1C[C@@H]2[C@@H](O)c1ccnc2ccc(OC)cc12` [Hydroquinidine], with 4.48%.
